From patent publication US6642215B2 (Leo Pharma A/S, priority 2001, dated 2003)
Like-named read-outs stand apart in the source and are kept apart here.

What was measured:
[1] = test system: NF-κB; test: NF-κB-dependent luciferase reporter assay in LPS-stimulated THP-1 cells; assay type: cell-based, human; details: 1 μM compound, then 1 μg/ml LPS 5 h
Source text: Luciferase plasmids: The NF-κB-luciferase reporter plasmid (pBIIX) was a gift from Marja Jäättelä and Ida S. Mathiasen, the Danish Cancer Society. It was constructed by inserting a synthetic fragment with two copies of the sequence (5′-ACAGAGGGGACTTTCCGAGAG-3′ separated by four nucleotides (5′-ATCT-3′) in front of a mouse fos promoter in a plasmid pfLUC (a pBluescript-based plasmid with a firefly luciferase encoding sequence) (K. Saksela and D. Baltimore, Mol. Cell Biol. 13, 1993, pp. 3698-3705) The NF-κB binding site from the mouse Igκ light chain is underlined (M. Grilli et al., Int. Rev, Cytol. 143, 1993, pp. 1-62). A Renilla luciferase plasmid with a thymidine kinase promoter (pRL-TK vector) was used as a control for transfection efficiency and was obtained from Promega Inc., Madison, Wis. Plasmid DNA was prepared and purified using the QIAGEN EndoToxin-free Maxiprep-500 kit (QIAGEN, Hilden, Germany). […]
The cell lysate was assayed for luciferase activity using the Dual luciferase kit as described by the manufacturer (Promega). […] Firefly luciferase activity was corrected for differences in transfection efficiency by normalizing it to the measured Renilla luciferase activity.

[2] = test system: NYH SCLC cells; test: DNA synthesis (tritiated thymidine incorporation) in NYH SCLC cells; assay type: cell-based
Experimental: (§1) DNA synthesis: NYH SCLC, HT-1080, Colo-320, PC-3 and H460 cells (7.5×10^3 cells/ml) were seeded in tissue culture vessels and the test compound were added 2 h after plating. Following an incubation for 144 h tritiated thymidine (5 CI/mmol, Amersham Pharmacia Biotech) was added to the culture at the concentration of 1 μCi/ml, and the cells were incubated for additional 4 h. The incorporated thymidine was measured with a β-counter. Each compound concentration was tested in triplicate.

[3] = test system: HT-1080 cells; test: DNA synthesis (tritiated thymidine incorporation) in HT-1080 cells; assay type: cell-based; details: Homo sapiens, 144 h incubation, mean ± SD of two to four experiments
Experimental: as §1

[4] = test system: NF-κB; test: NF-κB-dependent luciferase assay in HT-1080 cells, TNF-α stimulation; assay type: cell-based, human; details: Homo sapiens, compound 24 h before TNF-α 50 ng/ml 6 h, mean ± SD
Experimental: (§2) The NF-κB-luciferase reporter plasmid (pBIIX) and pRL-TK control vector described in Example 1 were used for the luciferase assay,
The HT-1080 cells were seeded at a density of 3×10^4 cells/cm^2 in 6 well-plates. The following day, the cells were co-transfected with construct DNA and pRL-TK vector using FuGene Transfection Reagent. A mixture of 10 μl Fugene and 90 μl serum free medium (per well) was prepared and Incubated for 5 min at room temperature. Then, this mixture was transferred to a mixture of construct DNA (1.25 μg per well) and pRL-TK vector (0.25 μg per well), gently mixed, incubated for 15 min at room temperature and added to the cells. The cells were treated at 37° C. with compound A (10^−12−10^−5 M) or DMSO for 24 h before stimulation with TNF-α (50 ng/ml) for 6 h.
(§3) The cell lysate was assayed for luciferase activity using the Dual luciferase kit as described by the manufacturer (Promega). All transfections were performed in triplicate. Firefly luciferase activity was corrected for differences in transfection efficiency by normalizing it to the measured Renilla luciferase activity.
(§4) NF-κB activity was measured by the luciferase assay described in Example 1.

[5] = test system: NF-κB; test: NF-κB-dependent luciferase assay in PC-3 cells, TNF-α stimulation; assay type: cell-based, human; details: compound 24 h before TNF-α 50 ng/ml 6 h
Experimental: as §2
The PC-3 cells were seeded at a density of 3×10^4 cells/cm^2 in 6 well-plates. The following day, the cells were co-transfected with construct DNA and pRL-TK vector using DOTAP liposomal transfection reagent (Boehringer Mannheim). The construct DNA (4.0 μg per well), the pRL-TK vector (1.0 μg per well), DOTAP (16.7 μl per well) and dH2O (total volume 100 μl per well) were carefully mixed and incubated for 15 min at 37° C. A growth medium without serum (900 μl per well) was added and the transfection mixture (1 ml per well) was added to the cells. After 4 h at 37° C., a growth medium with 20% FBS (1 ml per well) was added. The cells were treated at 37° C. with compound A (10^−12−10^−5 M) or DMSO for 24 h before stimulation with TNF-α (50 ng/ml) for 6 h.
as §3, §4

[6] = test system: PC-3 Xenografts; test: PC-3 xenografts in nude mice, tumour growth; assay type: in vivo, NMRI nu/nu mice; details: PC-3 xenograft, 50 mg/kg, oral gavage
Experimental: All of the animal experiments were conducted according to the guidelines and ethical standards of the Danish Committee for Animal Experiments. Female NMRI nu/nu mice 6 weeks of age were purchased from M&B (Ry, Denmark). The mice were allowed an acclimatisation period of 1-3 weeks before start of the experiments. The nude mice were housed in Scantainers under semi-sterile conditions and all handling of mice was performed in a laminar flow bench.
PC-3 Xenografts. NMRI nu/nu mice were injected with 1×10^6 cells in 0.2 ml media s.c. in each flank and tumour size was measured as mentioned above. Compound A was given for four weeks by oral gavage from day 14 when the tumour size was about 12 mm^2. Each treatment group consisted of 10 mice.
Statistical Methods In the animal models, tumour sizes were expressed by the mean of the trends in each treatment group. The trend is the linear increment or tumour size, where tumour size is the square root of the (mean) area of the tumour(s). Comparison with controls was expressed as T/C % and calculated as follows:
A=(overall mean tumour size at baseline+mean trend of treatment*intended days of treatment) […]
Overall mean tumour size at baseline=pooling all treatments this is the mean of all baseline values. For each mouse the baseline value is calculated as the square root of the (mean) area of the tumour(s). […]

For `N#CNC(=Nc1ccncc1)NCCCCCCOc1ccc(Cl)cc1` [compound A, N-(6-(4-chlorophenoxy)hexyl)-N′-cyano-N″-(4-pyridyl)guanidine], the “NF-κB-dependent luciferase activity, change” value ([1]; preincubation 2 h) was “small decrease”, the “NF-κB-dependent induction of luciferase expression blocked” value ([1]; preincubation 24 h, relative to DMSO-treated cells) was about 80% and the IC50 ([2]; NYH SCLC cells, 144 h incubation, mean ± SD of two to four experiments, read-out: DNA synthesis (IC50 nM)) was 0.64 ± 0.06 nM. The IC50 ([2]; incorporation of tritiated thymidine in NYH SCLC cells, read-out: NYH proliferation in vitro (IC50 nM)) was 0.64 ± 0.06 nM, the IC50 [3] was 5.6 ± 0.3 nM and the IC50 [4] was 2480 ± 775 nM. The “NF-κB activity (IC50 nM)” value [5] was “no inhibition” and the “In vivo xenografts in nude mice T/C (%)” value [6] was −5%.
